In patent publication US20150158891A1, “STABLE PHARMACEUTICAL COMPOSITION FOR OPTIMIZED DELIVERY OF AN HIV ATTACHMENT INHIBITOR” (Bristol-Myers Squibb Company, priority 2008, published 2015):

System: Porcine alkaline phosphatase
Assay: Conversion of prodrug to parent compound by alkaline phosphatase in pH 7.0 Tris-HCl buffer solution
Type: in vitro ADME
Description: Phosphate ester prodrug was dissolved in pH 7.0 Tris-HCl buffer to a concentration of 0.72 mg/mL. Porcine alkaline phosphatase (1 mg/mL) was added to an aliquot of the solution. 2.5 hours after enzyme addition a sample was analyzed. The results in the Table below confirm that alkaline phosphatase is active in pH 7.0 Tris-HCl buffer and rapidly hydrolyzes the phosphate ester prodrug to the parent compound.

Compound: COc1cnc(-n2cnc(C)n2)c2c1c(C(=O)C(=O)N1CCN(C(=O)c3ccccc3)CC1)cn2COP(=O)(O)O [Prodrug, 1-benzoyl-4-[2-[4-methoxy-7-(3-methyl-1H-1,2,4-triazol-1-yl)-1-[(phosphonooxy)methyl]-1H-pyrrolo[2,3-c]pyridin-3-yl]-1,2-dioxoethyl]-piperazine]
- Prodrug peak area (2.5 hr sample of solution containing enzyme (1 mg/mL)): 0.0%
- Prodrug peak area (initial sample of prodrug solution (no enzyme), 0.72 mg/mL, percent of total prodrug+parent peak area): 99.9%
